Marks after values point to notes of the source that are not given here.
What was measured:
MPTP-treated mice = assay: spontaneous locomotor activity of MPTP-treated mice; type: in vivo, C57BL/6 mice (male); conditions: MPTP 40 mg/kg × 2
Protocol: Mice injected with a dopaminergic toxin, MPTP were used as a model for Parkinson's disease and the effects of single administration of compound (IX) on the reduction of the spontaneous locomotor activity caused by MPTP-treatment were examined.
MPTP (40 mg/kg, i.p., saline) was injected twice at 24-hr intervals to C57BL/6 mice (male), and the day after the last administration, the mice were placed in locomotor activity measuring apparatus. After 30 min, compound (IX) alone (0.3, 1, 3 mg/kg, p.o.) was administered.

normal mice = assay: spontaneous locomotor activity after oral administration to normal mice (SCANET); type: in vivo, C57BL/6 mice (male); parameters: spontaneous locomotor activity / spontaneous locomotor activity, Total: unit not given here; conditions: for spontaneous locomotor activity, Total: total for 5 hours after administration
Protocol: The enhancing effects of compound (IX) on the spontaneous locomotor activity were examined in normal mice.
Compound (IX) was orally administrated to C57BL/6 mice (male) and the spontaneous locomotor activity was measured with a locomotor activity measuring apparatus (SCANET, TOYO sangyo). Mice were familiarized to the cage of the apparatus for at least 60 min. Compound (IX) (1,3,10 mg/kg) or vehicle (vehicle, distilled water Otsuka) was administrated orally. The spontaneous locomotor activity was measured for 5 hours after the mice were returned to the cage.

[1] = test system: mice pre-treated with reserpine; assay: reserpine-induced catalepsy test (bar test, catalepsy score); type: in vivo, ddy mice (male); conditions: reserpine 5 mg/kg i.p.
Protocol: The effects of compound (IX) in single administration and in combination with L-DOPA on cataleptic responses were examined in mice pre-treated with a monoamine-depleting drug, reserpine.
Reserpine (5 mg/kg, i.p., Apoplon Inj, Daiichi Pharmaceutical) was administrated to ddy mice (male). On the next day, compound (IX) (0.3, 1, 3 mg/kg, p.o.) with or without L-DOPA (25, 100 mg/kg, i.p., dissolved in 0.1N HCl and diluted with distilled water for injection (Otsuka Pharmaceutical)) was administrated to the mice and catalepsy test was performed after 1 hour. When L-DOPA was administrated, mice were pre-treated with carbidopa (25 mg/kg, i.p., 0.5% lactic acid) before 30 min.
The forelimbs or hindlimbs of each mouse were placed on a 4.5 cm high horizontal bar and the time was measured (cut off time 30 sec) until both legs reach the floor. The cataleptic responses were scored as follows (less than 5 sec.: 0 point, 5 sec. to less than 10 sec.: 1 point, 10 sec to less than 15 sec.: 2 points, 15 sec. to than 20 sec.: 3 points, 20 sec. to less than 25 sec.: 4 points, 25 sec. to less than 30 sec.: 5 points, 30 sec. or more: 6 points).
For forelimbs, the scores for 3 repetitive tests were summated. […] The catalepsy scores were calculated as the total scores for forelimbs and hindlimbs.

For `C[C@@H]1OC(=O)N[C@@H]1C(=O)NC(Cc1cscn1)C(=O)N1CCC[C@H]1C` (stereo in doubt) [Compound (IX)], the “spontaneous locomotor activity, Total” value (MPTP-treated mice; compound (IX) alone 0.3 mg/kg p.o.) was 2731 ± 875, the “spontaneous locomotor activity, Total” value (MPTP-treated mice; compound (IX) alone 1 mg/kg p.o.) was 4370 ± 1507 and the spontaneous locomotor activity (normal mice; 1 mg/kg p.o., Time 0–30) was 3737. For the same compound, the spontaneous locomotor activity (normal mice; 1 mg/kg p.o., Time 30–0 (before administration)) was 436, the spontaneous locomotor activity (normal mice; 1 mg/kg p.o., Time 30–60) was 842 and the spontaneous locomotor activity (normal mice; 1 mg/kg p.o., Time 60–30 (before administration)) was 1016. For the same compound, the spontaneous locomotor activity (normal mice; 1 mg/kg p.o., Time 60–90) was 1178, the spontaneous locomotor activity (normal mice; 1 mg/kg p.o., Time 90–120) was 1281 and the spontaneous locomotor activity (normal mice; 1 mg/kg p.o., Time 120–150) was 991. It also gave a spontaneous locomotor activity (normal mice; 1 mg/kg p.o., Time 150–180) of 273, a spontaneous locomotor activity (normal mice; 1 mg/kg p.o., Time 180–210) of 411 and a spontaneous locomotor activity (normal mice; 1 mg/kg p.o., Time 210–240) of 135. The spontaneous locomotor activity (normal mice; 1 mg/kg p.o., Time 240–270) was 463, the spontaneous locomotor activity (normal mice; 1 mg/kg p.o., Time 270–300) was 366 and the “spontaneous locomotor activity, Total” value (normal mice; 1 mg/kg p.o.) was 9676. The spontaneous locomotor activity (normal mice; 3 mg/kg p.o., Time 0–30) was 3755, the spontaneous locomotor activity (normal mice; 3 mg/kg p.o., Time 30–0 (before administration)) was 782 and the spontaneous locomotor activity (normal mice; 3 mg/kg p.o., Time 30–60) was 2626. The spontaneous locomotor activity (normal mice; 3 mg/kg p.o., Time 60–30 (before administration)) was 2349, the spontaneous locomotor activity (normal mice; 3 mg/kg p.o., Time 60–90) was 2690 and the spontaneous locomotor activity (normal mice; 3 mg/kg p.o., Time 90–120) was 2632. The spontaneous locomotor activity (normal mice; 3 mg/kg p.o., Time 120–150) was 2230, the spontaneous locomotor activity (normal mice; 3 mg/kg p.o., Time 150–180) was 868 and the spontaneous locomotor activity (normal mice; 3 mg/kg p.o., Time 180–210) was 377. It also gave a spontaneous locomotor activity (normal mice; 3 mg/kg p.o., Time 210–240) of 940, a spontaneous locomotor activity (normal mice; 3 mg/kg p.o., Time 240–270) of 266 and a spontaneous locomotor activity (normal mice; 3 mg/kg p.o., Time 270–300) of 597. For the same compound, the “spontaneous locomotor activity, Total” value (normal mice; 3 mg/kg p.o., P < 0.05 vs vehicle) was 16941*, the spontaneous locomotor activity (normal mice; 10 mg/kg p.o., Time 0–30) was 5910 and the spontaneous locomotor activity (normal mice; 10 mg/kg p.o., Time 30–0 (before administration)) was 401. It also gave a spontaneous locomotor activity (normal mice; 10 mg/kg p.o., Time 30–60) of 5079, a spontaneous locomotor activity (normal mice; 10 mg/kg p.o., Time 60–30 (before administration)) of 1700 and a spontaneous locomotor activity (normal mice; 10 mg/kg p.o., Time 60–90) of 5485. For the same compound, the spontaneous locomotor activity (normal mice; 10 mg/kg p.o., Time 90–120) was 6138, the spontaneous locomotor activity (normal mice; 10 mg/kg p.o., Time 120–150) was 5582 and the spontaneous locomotor activity (normal mice; 10 mg/kg p.o., Time 150–180) was 5390. It also gave a spontaneous locomotor activity (normal mice; 10 mg/kg p.o., Time 180–210) of 4218, a spontaneous locomotor activity (normal mice; 10 mg/kg p.o., Time 210–240) of 3297 and a spontaneous locomotor activity (normal mice; 10 mg/kg p.o., Time 240–270) of 2305. The spontaneous locomotor activity (normal mice; 10 mg/kg p.o., Time 270–300) was 1457, the “spontaneous locomotor activity, Total” value (normal mice; 10 mg/kg p.o., P < 0.01 vs vehicle) was 44861** and the “dose that increased the spontaneous locomotor activity” value (normal mice; p.o., normal mice) was no less than 3 mg/kg. For the same compound, the “catalepsy score, mean” value ([1]; compound (IX) 0.3 mg/kg p.o. + L-DOPA 100 mg/kg i.p., 1 hour) was 17.4.
`N[C@@H](Cc1ccc(O)c(O)c1)C(=O)O` [L-DOPA, reference compound] was tested, and the “catalepsy score, mean” value ([1]; L-DOPA 100 mg/kg i.p. + solvent p.o., 1 hour after administration) was 23.0.
